# Results: patent US7888464B2, “Hepatitis C virus inhibitors” (Bristol-Myers Squibb Company, priority 2006, dated 2011)
# Like-named read-outs stand apart in the source and are kept apart here.
# What was measured:
# [1] = tested on: HCV replicon (strain 1b) in HUH-7 cells; assay: HCV replicon FRET assay; format: cell-based; settings: Hepatitis C virus
# Description: An HCV replicon whole cell system was established as described by Lohmann V, Korner F, Koch J, Herian U, Theilmann L, Bartenschlager R., Science 285(5424): 110-3 (1999). This system enabled us to evaluate the effects of our HCV Protease compounds on HCV RNA replication. Briefly, using the HCV strain 1b sequence described in the Lohmann paper (Assession number: AJ238799), an HCV cDNA was synthesized by Operon Technologies, Inc. (Alameda, Calif.), and the full-length replicon was then assembled in plasmid pGem9zf(+) (Promega, Madison, Wis.) using standard molecular biology techniques. The replicon consists of (i) the HCV 5′ UTR fused to the first 12 amino acids of the capsid protein, (ii) the neomycin phosphotransferase gene (neo), (iii) the IRES from encephalomyocarditis virus (EMCV), and (iv) HCV NS3 to NS5B genes and the HCV 3′ UTR. Plasmid DNAs were linearized with ScaI and RNA transcripts were synthesized in vitro using the T7 MegaScript transcription kit (Ambion, Austin, Tex.) according to manufacturer's directions. In vitro transcripts of the cDNA were transfected into the human hepatoma cell line, HUH-7. […] Resulting cell lines were characterized for positive and negative strand RNA production and protein production over time.
# The HCV replicon FRET assay was developed to monitor the inhibitory effects of compounds described in the disclosure on HCV viral replication. HUH-7 cells, constitutively expressing the HCV replicon, were grown in Dulbecco's Modified Eagle Media (DMEM) (Gibco-BRL) containing 10% Fetal calf serum (FCS) (Sigma) and 1 mg/ml G418 (Gibco-BRL). Cells were seeded the night before (1.5×10^4 cells/well) in 96-well tissue-culture sterile plates. Compound and no compound controls were prepared in DMEM containing 4% FCS, 1:100 Penicillin/Streptomysin (Gibco-BRL), 1:100 L-glutamine and 5% DMSO in the dilution plate (0.5% DMSO final concentration in the assay). Compound/DMSO mixes were added to the cells and incubated for 4 days at 37° C. After 4 days, cells were first assessed for cytotoxicity using alamar Blue (Trek Diagnotstic Systems) for a CC50 reading. The toxicity of compound (CC50) was determined by adding 1/10th volume of alamar Blue to the media incubating the cells. After 4 h, the fluorescence signal from each well was read, with an excitation wavelength at 530 nm and an emission wavelength of 580 nm, using the Cytofluor Series 4000 (Perspective Biosystems). Plates were then rinsed thoroughly with Phosphate-Buffered Saline (PBS) (3 times 150 μl). The cells were lysed with 25 μl of a lysis assay reagent containing an HCV protease substrate (5× cell Luciferase cell culture lysis reagent (Promega #E153A) diluted to 1× with distilled water, NaCl added to 150 mM final, the FRET peptide substrate (as described for the enzyme assay above) diluted to 10 μM final from a 2 mM stock in 100% DMSO. The plate was then placed into the Cytofluor 4000 instrument which had been set to 340 nm excitation/490 nm emission, automatic mode for 21 cycles and the plate read in a kinetic mode. EC50 determinations were carried out as described for the IC50 determinations.
# [2] = biological target: T1, HCV NS3/4A protease complex, BMS strain (genotype 1a) (UniProt P27958, species not given/STRAIN_BMS); assay: FRET peptide assay to monitor HCV NS3/4A proteolytic activity (BMS strain); format: biochemical; settings: NS3/4A BMS strain, read-out: HCV Protease (IC50)
# T1 construct: "DNA encoding the recombinant HCV NS3/4A protease complex (amino acids 1027 to 1711) for these strains" (said of H77 and J4L6S, not expressly of BMS); given for the H77/J4L6S constructs only
# Description: HCV NS3 protease complexes, derived from the BMS strain, H77 strain or J4L6S strain, were generated, as described below. These purified recombinant proteins were generated for use in a homogeneous assay (see below) to provide an indication of how effective compounds of the present disclosure would be in inhibiting HCV NS3 proteolytic activity.
# Serum from an HCV-infected patient was obtained from Dr. T. Wright, San Francisco Hospital. An engineered full-length cDNA (compliment deoxyribonucleic acid) template of the HCV genome (BMS strain) was constructed from DNA fragments obtained by reverse transcription-PCR(RT-PCR) of serum RNA (ribonucleic acid) and using primers selected on the basis of homology between other genotype la strains. From the determination of the entire genome sequence, a genotype la was assigned to the HCV isolate according to the classification of Simmonds et al. (See P Simmonds, K A Rose, S Graham, S W Chan, F McOmish, B C Dow, E A Follett, P L Yap and H Marsden, J. Clin. Microbiol., 31(6), 1493-1503 (1993)). […] The infectious clones, H77 (1a genotype) and J4L6S (1b genotype) were obtained from R. Purcell (NIH) and the sequences are published in Genbank (AAB67036, see Yanagi, M., Purcell, R. H., Emerson, S. U. and Bukh, J. Proc. Natl. Acad. Sci. U.S.A. 94(16), 8738-8743 (1997); AF054247, see Yanagi, M., St Claire, M., Shapiro, M., Emerson, S. U., Purcell, R. H. and Bukh, J, Virology 244 (1), 161-172. (1998)).
# The H77 and J4L6S strains were used for production of recombinant NS3/4A protease complexes. DNA encoding the recombinant HCV NS3/4A protease complex (amino acids 1027 to 1711) for these strains were manipulated as described by P. Gallinari et al. (see Gallinari P, Paolini C, Brennan D, Nardi C, Steinkuhler C, De Francesco R. Biochemistry. 38(17):5620-32, (1999)). Briefly, a three-lysine solubilizing tail was added at the 3′-end of the NS4A coding region. The cysteine in the P1 position of the NS4A-NS4B cleavage site (amino acid 1711) was changed to a glycine to avoid the proteolytic cleavage of the lysine tag. Furthermore, a cysteine to serine mutation was introduced by PCR at amino acid position 1454 to prevent the autolytic cleavage in the NS3 helicase domain. The variant DNA fragment was cloned in the pET21b bacterial expression vector (Novagen) and the NS3/4A complex was expressed in Escherichia. coli strain BL21 (DE3) (Invitrogen) following the protocol described by P. Gallinari et al. (see Gallinari P, Brennan D, Nardi C, Brunetti M, Tomei L, Steinkuhler C, De Francesco R., J. Virol. 72(8):6758-69 (1998)) with modifications. Briefly, the NS3/4A protease complex expression was induced with 0.5 millimolar (mM) Isopropyl β-D-1-thiogalactopyranoside (IPTG) for 22 hours (h) at 20° C. A typical fermentation (1 Liter (L)) yielded approximately 10 grams (g) of wet cell paste. The cells were resuspended in lysis buffer (10 mL/g) consisting of 25 mM N-(2-Hydroxyethyl)piperazine-N′-(2-Ethane Sulfonic acid) (HEPES), pH 7.5, 20% glycerol, 500 mM Sodium Chloride (NaCl), 0.5% Triton X-100, 1 microgram/milliliter (“μg/mL”) lysozyme, 5 mM Magnesium Chloride (MgCl2), 1 μg/ml DnaseI, 5 mM β-Mercaptoethanol (βME), Protease inhibitor-Ethylenediamine Tetraacetic acid (EDTA) free (Roche), homogenized and incubated for 20 minutes (min) at 4° C. The homogenate was sonicated and clarified by ultra-centrifugation at 235000 g for 1 hour (h) at 4° C. Imidazole was added to the supernatant to a final concentration of 15 mM and the pH adjusted to 8.0. The crude protein extract was loaded on a Nickel-Nitrilotriacetic acid (Ni-NTA) column pre-equilibrated with buffer B (25 mM HEPES, pH 8.0, 20% glycerol, 500 mM NaCl, 0.5% Triton X-100, 15 mM imidazole, 5 mM βME). The sample was loaded at a flow rate of 1 mL/min. The column was washed with 15 column volumes of buffer C (same as buffer B except with 0.2% Triton X-100). The protein was eluted with 5 column volumes of buffer D (same as buffer C except with 200 mM Imidazole). […]
# [3] = Huh-7, read-out: HCV Pro Replicon (EC50)
# [4] = activity range symbols of Table 2
# T1 sequence (P27958 1027-1657, stated change not applied, one chain of several): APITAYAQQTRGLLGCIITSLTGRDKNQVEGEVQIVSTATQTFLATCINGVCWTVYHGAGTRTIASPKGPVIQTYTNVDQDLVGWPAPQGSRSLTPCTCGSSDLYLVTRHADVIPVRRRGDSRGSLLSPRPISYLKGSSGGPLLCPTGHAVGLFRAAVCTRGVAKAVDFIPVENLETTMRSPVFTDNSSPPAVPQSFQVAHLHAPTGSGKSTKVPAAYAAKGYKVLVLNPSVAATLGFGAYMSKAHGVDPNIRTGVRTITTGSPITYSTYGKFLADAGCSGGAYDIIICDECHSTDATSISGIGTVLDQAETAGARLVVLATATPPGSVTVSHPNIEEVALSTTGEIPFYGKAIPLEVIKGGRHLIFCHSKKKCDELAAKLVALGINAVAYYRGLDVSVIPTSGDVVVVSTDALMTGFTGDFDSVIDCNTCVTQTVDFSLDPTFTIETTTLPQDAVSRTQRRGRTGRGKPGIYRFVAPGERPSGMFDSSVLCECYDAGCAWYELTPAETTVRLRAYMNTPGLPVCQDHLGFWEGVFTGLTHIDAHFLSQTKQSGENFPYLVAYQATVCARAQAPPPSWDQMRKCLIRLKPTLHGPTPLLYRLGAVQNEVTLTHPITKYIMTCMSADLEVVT
Structure (SMILES),"EC50 [1, 3]","IC50 [2, 4]",IC50 ([2]; numeric cells of Table 2),"EC50 ([1]; Huh-7, HCV replicon, numeric cells of Table 2, read-out: HCV Pro Replicon (EC50))"
"C=C[C@@H]1C[C@]1(NC(=O)[C@@H]1C[C@@](OC)(c2ccc(-c3ccccc3)cc2)CN1C(=O)[C@@H](NC(=O)OC12CC3CC(CC(C3)C1)C2)C(C)(C)C)C(=O)NS(=O)(=O)C1CC1 [Cmpd 204, {(S)-1-[(2S,4R)-4-Biphenyl-4-yl-2-((S)-(1R,2S)-1-cyclopropanesulfonylaminocarbonyl-2-vinyl-cyclopropylcarbamoyl)-4-methoxy-pyrrolidine-1-carbonyl]-2,2-dimethyl-propyl}-carbamic acid adamantan-1-yl ester]",1 to 50 nM,1 to 50 nM,,
C=C[C@@H]1C[C@]1(NC(=O)[C@@H]1C[C@@](OC)(c2ccc(-c3ccccc3)cc2)CN1C(=O)[C@H](Cc1ccc(C(C)(C)C)cc1)NC(=O)OC(C)(C)C)C(=O)NS(=O)(=O)C1CC1 [Cmpd 211],,,1600 nM,
C=CCCCCC[C@H](NC(=O)OC(C)(C)C)C(=O)N1C[C@](OC)(c2ccc(-c3ccccc3)cc2)C[C@H]1C(=O)N[C@]1(C(=O)NS(=O)(=O)C2CC2)C[C@H]1C=C [Cmpd 107],> 500 nM,50 to 500 nM,,
"C=C[C@@H]1C[C@]1(NC(=O)[C@@H]1C[C@@](OC)(c2ccc(-c3ccccc3)cc2)CN1C(=O)[C@@H](Nc1cccc(OC)c1)C(C)(C)C)C(=O)NS(=O)(=O)C1CC1 [Cmpd 207, (2S,4R)-4-Biphenyl-4-yl-4-methoxy-1-[(S)-2-(3-methoxy-phenylamino)-3,3-dimethyl-butyryl]-pyrrolidine-2-carboxylic acid ((1R,2S)-1-cyclopropanesulfonylaminocarbonyl-2-vinyl-cyclopropyl)-amide]",1 to 50 nM,1 to 50 nM,,
"C=C[C@@H]1C[C@]1(NC(=O)[C@@H]1C[C@@](OC)(c2ccc(-c3ccccc3)cc2)CN1C(=O)[C@@H](NC(=O)OC(C)(C)C)C(C)C)C(=O)NS(=O)(=O)C1CC1 [Cmpd 201, {(S)-1-[(2S,4R)-4-Biphenyl-4-yl-2-((S)-(1R,2S)-1-cyclopropanesulfonylaminocarbonyl-2-vinyl-cyclopropylcarbamoyl)-4-methoxy-pyrrolidine-1-carbonyl]-2-methyl-propyl}-carbamic acid tert-butyl ester]",50 to 500 nM,1 to 50 nM,,
"C=C[C@@H]1C[C@]1(NC(=O)[C@@H]1C[C@@](OC)(c2ccc(-c3ccccc3)cc2)CN1C(=O)[C@H](CC(C)C)NC(=O)OC(C)(C)C)C(=O)NS(=O)(=O)C1CC1 [Cmpd 203, {(S)-1-[(2S,4R)-4-Biphenyl-4-yl-2-((S)-(1R,2S)-1-cyclopropanesulfonylaminocarbonyl-2-vinyl-cyclopropylcarbamoyl)-4-methoxy-pyrrolidine-1-carbonyl]-3-methyl-butyl}-carbamic acid tert-butyl ester]",50 to 500 nM,1 to 50 nM,,
"C=C[C@@H]1C[C@]1(NC(=O)[C@@H]1C[C@@](OC)(c2ccc(-c3ccccc3)cc2)CN1C(=O)[C@H](Nc1ccc(F)c(F)c1)C(C)(C)C)C(=O)NS(=O)(=O)C1CC1 [Cmpd 210, (2S,4R)-4-Biphenyl-4-yl-1-[(R)-2-(3,4-difluoro-phenylamino)-3,3-dimethyl-butyryl]-4-methoxy-pyrrolidine-2-carboxylic acid ((1R,2S)-1-cyclopropanesulfonylaminocarbonyl-2-vinyl-cyclopropyl)-amide]",> 500 nM,> 500 nM,,
"C=C[C@@H]1C[C@]1(NC(=O)[C@@H]1C[C@@](OC)(c2ccc(-c3ccccc3)cc2)CN1C(=O)[C@@H](NC(=O)OC(C)(C)C)C(C)(C)C)C(=O)NS(=O)(=O)C1CC1 [Cmpd 106, tert-butyl (S)-1-((2S,4R)-4-(biphenyl-4-yl)-2-((1R,2S)-1-(cyclopropylsulfonylcarbamoyl)-2-vinylcyclopropylcarbamoyl)-4-methoxypyrrolidin-1-yl)-3,3-dimethyl-1-oxobutan-2-ylcarbamate]",,,1 nM,11 nM
"C=C[C@@H]1C[C@]1(NC(=O)[C@@H]1C[C@@](OC)(c2ccc(-c3ccccc3)cc2)CN1C(=O)[C@@H](NC(=O)OC(C)(C)C(F)(F)F)C(C)(C)C)C(=O)NS(=O)(=O)C1CC1 [Cmpd 200, {(S)-1-[(2S,4R)-4-Biphenyl-4-yl-2-((S)-(1R,2S)-1-cyclopropanesulfonylaminocarbonyl-2-vinyl-cyclopropylcarbamoyl)-4-methoxy-pyrrolidine-1-carbonyl]-2,2-dimethyl-propyl}-carbamic acid 2,2,2-trifluoro-1,1-dimethyl-ethyl ester]",1 to 50 nM,1 to 50 nM,,
